“And” between values parts separate entries of the source, which are not always exact repeats. Equal entries are not always repeated. Where two headings read alike, the source gives them in different places.
Columns and labels:
[1] = system: HEK-293 human embryonic kidney cells ATCC CRL-1573
Experimental: The cells were incubated together with the compounds for 20 h at 37 °C in 5% CO2. […] Tamoxifen (Sigma T5648) was used as internal control on each plate.

[2] = system: Cryptococcus neoformans H99 ATCC 208821 type strain; experiment: Antifungal MIC assay; assay type: cell-based; details: for MIC: Cryptococcus neoformans, ATCC208821, read-out: MIC* Cryptococcus neoformans ATCC 208821
Experimental: (§1) For the fungal assays, both fungi (yeast) strains were cultured for 3 days on Yeast Extract-Peptone Dextrose (YPD; Becton Dickinson 242720) agar at 30 °C. A yeast suspension of 1 × 10^6 to 5 × 10^6 CFU/mL (as determined by OD530) was prepared from five colonies from the agar plates, subsequently diluted with Yeast Nitrogen Base media (YNB; Becton Dickinson 233520), and added to each well of the compound containing plates (384-well plates, NBS; Corning CLS3640), giving a final cell density of 2.5 × 10^3 CFU/mL and a total volume of 50 μL. Plates were covered and incubated at 35 °C for 36 h without shaking. […] MIC values were recorded as the lowest concentration at which the growth was inhibited by ≥80%, equivalent to ″optically clear-to-slightly hazy″ or MIC score of 0–1 as per CLSI guidelines M27 Reference Method for Broth Dilution Antifungal Susceptibility Testing of Yeasts. […] Fluconazole (Sigma F8929) was used as internal control on each plate for all strains. All compounds were tested as two technical replicates in two to four independent biological assays, n = 4–8 final data.

[3] = system: Escherichia coli ATCC 25922 FDA control strain; experiment: CO-ADD antibacterial MIC assay; assay type: cell-based
Experimental: (§2) For the all the bacterial assays, each bacterial strain was cultured in cation-adjusted Mueller Hinton broth (CAMHB; Bacto Laboratories 212322) at 37 °C overnight. A sample of each culture was then diluted 40-fold in fresh CAMHB and incubated at 37 °C for 1.5–3 h. The resultant mid-log phase cultures were diluted with CAMHB (CFU/mL measured by OD600) and then added to each well of the compound-containing plates (384-well non-binding surface (NBS) plates; Corning CLS3640), giving a cell density of 5 × 10^5 CFU/mL and a total volume of 50 μL. Plates were covered and incubated at 37 °C for 18 h without shaking. Inhibition of bacterial growth was determined by measuring the absorbance at 600 nm (OD600) using media only as negative control and bacteria without inhibitors as positive control. MIC values were determined as the lowest concentration at which the growth was inhibited by ≥80% (equivalent to no visible growth by the eye). Colistin sulfate (Sigma C4461) and vancomycin HCl (Sigma 861987) were used as internal controls on each plate for Gram-negative and Gram-positive bacteria, respectively. All compounds were tested as two technical replicates in two independent biological assays, n = 4 final data.

[4] = system: Pseudomonas aeruginosa ATCC 27853 QC control strain; experiment: CO-ADD antibacterial MIC assay; assay type: cell-based
Experimental: as §2

[5] = system: methicillin-resistant Staphylococcus aureus ATCC 43300; experiment: CO-ADD antibacterial MIC assay; assay type: cell-based
Experimental: as §2

[6] = system: Acinetobacter baumannii ATCC 19606 type strain; experiment: CO-ADD antibacterial MIC assay; assay type: cell-based
Experimental: as §2

[7] = system: Candida albicans ATCC 90028 NCCLS11; experiment: Antifungal MIC assay; assay type: cell-based; details: for MIC: Candida albicans, ATCC90028, comparator antifungals, read-out: MIC* Candida albicans ATCC 90028
Experimental: as §1, with “[…],” for “MIC values were recorded as the lowest concentration at which the growth was inhibited by ≥80%,”

human red blood cells = assay type: cell-based; details: initial CO-ADD screening, 1 h; 10% hemolysis
Experimental: Human whole blood (Australian Red Cross) was washed three times with 3 vol of 0.9% NaCl and resuspended in a concentration of 0.5 × 10^8 cells/mL, determined by a manual cell count in a Neubauer hemocytometer. […] After incubation, the plates were centrifuged at 1000g for 10 min to pellet cells and debris; 25 μL of the supernatant was then transferred to reading plates (384-well, polystyrene plated (PS), Corning CLS3680), with hemolysis determined by measuring the supernatant absorbance at […] (OD405) using cells without inhibitors as negative control and cells with 1% Triton X-100 (Sigma T8787) as positive control. […] Melittin (Sigma M2272) was used as internal control on each plate.

[8] = system: Candida auris CBS12373 KCTC 17810; experiment: Antifungal MIC assay, extended panel; assay type: cell-based; details: Candidozyma auris, comparator antifungals, read-out: MIC* Candida auris CBS12373
Experimental: as §1, with “values were recorded as the lowest concentration at which the growth was inhibited by ≥80%, equivalent to ″optically clear-to-slightly hazy″ or MIC score of 0–1 as per CLSI guidelines M27” left out

[9] = system: Candida auris CBS10913 JCM 15448; experiment: Antifungal MIC assay, extended panel; assay type: cell-based; details: Candidozyma auris, comparator antifungals, read-out: MIC* Candida auris CBS10913
Experimental: as §1, with “values were recorded as the lowest concentration at which the growth was inhibited by ≥80%, equivalent to ″optically clear-to-slightly hazy″ or MIC score of 0–1 as per CLSI guidelines M27” left out

[10] = initial CO-ADD dose-response screening, ≥80% growth inhibition
[11] = ≥80% inhibition, converted with MW of Table S12
[12] = single concentration (32 µg/mL) CO-ADD Primary Screening, no inhibition, no dose-response

SMILES: O=C([O][Ag])c1ccc(N2N=C(/C=C/c3ccccc3)CC2c2ccccc2)cc1.O=C([O][Ag])c1ccc(N2N=C(/C=C/c3ccccc3)CC2c2ccccc2)cc1 (racemic) [Ag3]
- HEK CC50 ([1]; initial CO-ADD screening, 20 h): > 32 µg/mL
- MIC Cn [2, 10]: 16 µg/mL
- MIC Ec [3, 10]: > 32 µg/mL
- MIC Pa [4, 10]: > 32 µg/mL
- MIC MRSA (Sa) [5, 10]: > 32 µg/mL
- MIC Ab [6, 10]: > 32 µg/mL
- MIC Ca [7, 10]: 16 µg/mL
- RBC HC10 (human red blood cells): > 32 µg/mL

SMILES: FC(F)(F)c1ccnc([S][Au][PH](c2ccco2)(c2ccco2)c2ccco2)n1 [Au-S3]
- MIC MRSA (Sa) [5, 10]: 0.25 µg/mL

SMILES: O=C([O][Eu]([O]C(=O)c1ccccc1F)[O]C(=O)c1ccccc1F)c1ccccc1F.c1ccc(-c2ccnc3c2ccc2c(-c4ccccc4)ccnc23)cc1 [Eu-S3]
- CC50 ([1]; read-out: HEK CC50, initial CO-ADD screening, 20 h): 14.7 µM
- MIC Cn [2, 10]: 5 µM
- MIC Ec [3, 10]: > 20 µM
- MIC Pa [4, 10]: > 20 µM
- MIC MRSA (Sa) [5, 10]: 10 µM
- MIC Ab [6, 10]: > 20 µM
- MIC Ca [7, 10]: 20 µM
- RBC HC10 (human red blood cells): > 20 µM

SMILES: Cc1cccc(C2(c3ccccc3)[C]([Au-][Cl])=C(c3ccccc3)c3cccc(C)[n+]32)n1 (stereo not drawn) [Au-S14]
- HEK CC50 ([1]; initial CO-ADD screening, 20 h): 0.7 µg/mL
- MIC Cn [2, 10]: <= 0.25 μg/mL
- MIC Ec [3, 10]: > 32 µg/mL
- MIC Pa [4, 10]: > 32 µg/mL
- MIC MRSA (Sa) [5, 10]: <= 0.25 μg/mL
- MIC Ab [6, 10]: 32 µg/mL
- MIC Ca [7, 10]: <= 0.25 μg/mL
- RBC HC10 (human red blood cells): 23.7 µg/mL

SMILES: Cc1cccc2[n+]1[Pd-2]([Cl])([Cl])[n+]1c(C)cccc1C(C(C)(C)C)=C=C2c1ccccc1 [HM_C2]
- HEK CC50 ([1]; initial CO-ADD screening, 20 h): 1.1 µg/mL
- MIC Cn [2, 10]: <= 0.25 μg/mL
- MIC Ec [3, 10]: > 32 µg/mL
- MIC Pa [4, 10]: > 32 µg/mL
- MIC MRSA (Sa) [5, 10]: <= 0.25 μg/mL
- MIC Ab [6, 10]: 32 µg/mL
- MIC Ca [7, 10]: <= 0.25 μg/mL
- RBC HC10 (human red blood cells): > 32 µg/mL

SMILES: C[C@@H](c1ncncc1F)[C@](O)(Cn1cncn1)c1ccc(F)cc1F [Voriconazole, reference compound]
- MIC ([8]; MIC = ≥80% inhibition): 0.156 µg/mL
- MIC [8, 11]: 0.447 µM
- MIC ([9]; MIC = ≥80% inhibition): 0.004 to 0.008 µg/mL
- MIC [9, 11]: 0.016 to 0.032 µM
- MIC [2]: ≥ 64 µg/mL and ≥ 260 µM
- MIC ([7]; MIC = ≥80% inhibition): 0.008 µg/mL
- MIC [7, 11]: 0.032 µM

SMILES: COc1ccc(/C=C/C2=NN(c3ccc(C(=O)O)cc3)C(c3ccc(OC)c(OC)c3)C2)cc1OC (racemic) [Ligand-Ag1]
- MIC Cn [2, 12]: > 32 µg/mL
- MIC Ec [3, 12]: > 32 µg/mL
- MIC Pa [4, 12]: > 32 µg/mL
- MIC MRSA (Sa) [5, 12]: > 32 µg/mL
- MIC Ab [6, 12]: > 32 µg/mL
- MIC Ca [7, 12]: > 32 µg/mL

SMILES: CC(=O)N1CCN(c2ccc(OCC3COC(Cn4ccnc4)(c4ccc(Cl)cc4Cl)O3)cc2)CC1 (stereo not drawn) [Ketoconazole, reference compound]
- MIC ([8]; MIC = ≥80% inhibition): ≤ 0.004 µg/mL
- MIC [8, 11]: ≤ 0.01 µM
- MIC ([9]; MIC = ≥80% inhibition): 0.004 to 0.016 µg/mL
- MIC [9, 11]: 0.01 to 0.042 µM
- MIC [2]: > 64 µg/mL and > 170 µM
- MIC ([7]; MIC = ≥80% inhibition): 0.002 to 0.004 µg/mL
- MIC [7, 11]: 0.005 to 0.01 µM

SMILES: Cn1ccn(Cc2ccccc2)[c]1=[Au]1[S][Mo]2([S]1)[S][Au](=[c]1n(C)ccn1Cc1ccccc1)[S]2 (stereo not drawn) [Au-S10]
- MIC Ca [7, 10]: 0.25 µg/mL

SMILES: Cc1ccnc([S][Au][PH](c2ccco2)(c2ccco2)c2ccco2)n1 [Au-S2]
- HEK CC50 ([1]; initial CO-ADD screening, 20 h): 1.38 µg/mL

SMILES: O=C(O)c1ccc(N2N=C(/C=C/C=C/c3ccccc3)CC2/C=C/c2ccccc2)cc1 (racemic) [Ligand-Ag2]
- MIC Cn [2, 12]: > 32 µg/mL
- MIC Ec [3, 12]: > 32 µg/mL
- MIC Pa [4, 12]: > 32 µg/mL
- MIC MRSA (Sa) [5, 12]: > 32 µg/mL
- MIC Ab [6, 12]: > 32 µg/mL
- MIC Ca [7, 12]: > 32 µg/mL

SMILES: FC(F)(F)c1ccnc([S][Au][PH](c2ccccc2)(c2ccccc2)c2ccccc2)n1 [Au-S6]
- MIC MRSA (Sa) [5, 10]: 0.25 µg/mL

SMILES: c1ccc([S][Au][PH](c2ccco2)(c2ccco2)c2ccco2)nc1 [Au-S1]
- MIC Cn [2, 10]: 16 µg/mL
- MIC MRSA (Sa) [5, 10]: 16 µg/mL
- MIC Ca [7, 10]: 16 µg/mL

SMILES: CC1=C(C)C(C)C(c2ccc(-c3ccccc3)cc2)=C1C.Cc1ccccc1NC1=[N][Ir]([Cl])[NH]C(NS(=O)(=O)c2ccc([N+](=O)[O-])cc2)=N1 [Ir2]
- CC50 ([1]; read-out: HEK293 CC50, ranges obtained upon retesting, new batch): 62 to 65 µM

SMILES: O=C(O)c1ccc(N2N=C(/C=C/c3ccccc3)CC2c2ccccc2)cc1 (racemic) [Ligand-Ag3]
- MIC Cn [2, 12]: > 32 µg/mL
- MIC Ec [3, 12]: > 32 µg/mL
- MIC Pa [4, 12]: > 32 µg/mL
- MIC MRSA (Sa) [5, 12]: > 32 µg/mL
- MIC Ab [6, 12]: > 32 µg/mL
- MIC Ca [7, 12]: > 32 µg/mL
